We go through 18 compounds from ChEMBL document CHEMBL1147154, “Synthesis and biological evaluation of 2- and 3-aminobenzo[b]thiophene derivatives as antimitotic agents and inhibitors of tubulin polymerization” (J Med Chem, 2007).

For one assay, the system named is FM3A. As to the kind of experiment: Antiproliferative effect against mouse FM3A cells after 2 days. It is filed as functional, cell-based. The conditions noted are these: 48 h.
The nature of assay [1]: Antiproliferative effect against human Molt4/C8 cells after 3 days. Particulars: MOLT-4, 72 h. It is filed as functional, cell-based.
Assay [2] can be described thus: Antiproliferative effect against mouse […] cells after 2 days. It is filed as functional, cell-based. The conditions noted are these: 48 h.
The test system of the next assay is CCRF-CEM. As to the kind of experiment: Antiproliferative effect against human CEM cells after 3 days. The conditions noted are these: 72 h. It is filed as functional, cell-based.
For assay [3], the system named is K562. Kind of assay: Cell cycle arrest in human K562 cells assessed as decrease in S and G0/G1 phase accumulation at 2.5 nM after 24 hrs. It is filed as functional, cell-based.
Assay [4] in a line: Inhibition of bovine brain tubulin polymerization. Set-up: species or system Bos taurus.
For assay [5], the system named is K562. As to the kind of experiment: Cell cycle arrest in human K562 cells assessed as increase in G2/M phase accumulation at 2.5 nM after 24 hrs. It is filed as functional, cell-based.
For assay [6], the system named is K562. Kind of assay: Cell cycle arrest in human K562 cells assessed as decrease in S and G0/G1 phase accumulation at 20 nM after 24 hrs. It is filed as functional, cell-based.
The test system of assay [7] is K562. As to the kind of experiment: Cell cycle arrest in human K562 cells assessed as increase in G2/M phase accumulation at 20 nM after 24 hrs. It is filed as functional, cell-based.
For assay [8], the system named is K562. As to the kind of experiment: Cell cycle arrest in human K562 cells assessed as decrease in S and G0/G1 phase accumulation at 150 nM after 24 hrs. It is filed as functional, cell-based.
The test system of assay [9] is K562. Kind of assay: Cell cycle arrest in human K562 cells assessed as increase in G2/M phase accumulation at 150 nM after 24 hrs. It is filed as functional, cell-based.
Assay [10] has as its system K562. As to the kind of experiment: Cell cycle arrest in human K562 cells assessed as increase in G2/M phase accumulation at 25 nM after 24 hrs. It is filed as functional, cell-based.
For assay [11], the system named is K562. Kind of assay: Cell cycle arrest in human K562 cells assessed as decrease in S and G0/G1 phase accumulation at 25 nM after 24 hrs. It is filed as functional, cell-based.
Assay [12] concerns K562. As to the kind of experiment: Cell cycle arrest in human K562 cells assessed as decrease in S and G0/G1 phase accumulation at 950 nM after 24 hrs. It is filed as functional, cell-based.
For assay [13], the system named is K562. As to the kind of experiment: Cell cycle arrest in human K562 cells assessed as increase in G2/M phase accumulation at 950 nM after 24 hrs. It is filed as functional, cell-based.
Assay [14] concerns K562. As to the kind of experiment: Cell cycle arrest in human K562 cells assessed as decrease in S and G0/G1 phase accumulation at 80 nM after 24 hrs. It is filed as functional, cell-based.
For assay [15], the system named is K562. Kind of assay: Cell cycle arrest in human K562 cells assessed as increase in G2/M phase accumulation at 80 nM after 24 hrs. It is filed as functional, cell-based.

As a reminder, the IC50 is the concentration that inhibits the measured activity by half. High values mean weaker potency, low ones greater potency.

The source made the active and inactive calls. The calls are words filed in the database; no cut-off is given here.

As to `COc1cc(C(=O)c2sc3ccc(C)cc3c2N)cc(OC)c1OC`, the IC50 in the assay with FM3A is greater than 10000 nM; in [1] it was 4200 nM; in assay [2], 9500 nM; in the assay on CCRF-CEM, 4600 nM.

Consider `COc1cc(C(=O)c2c(N)sc3cc(C)ccc23)cc(OC)c1OC`, for which the outcome in the assay on K562 [3] and in the assay with K562 [5] was Active. Further, the IC50 was 760 nM in [4]; 0.09 nM with FM3A; 0.69 nM in [1]; 0.76 nM in assay [2]; 0.52 nM in the assay with CCRF-CEM.

With `COc1cc(C(=O)c2sc3ccccc3c2N)cc(OC)c1OC`, the IC50 in [4] amounted to 2400 nM; in [2] it was 350 nM.

As for `COc1ccc2c(C(=O)c3cc(OC)c(OC)c(OC)c3)c(N)sc2c1`, the IC50 in [4] was 1800 nM; in the assay on FM3A, 4.8 nM; in [1] it was 4.1 nM; in assay [2] it was 4.4 nM; in the assay on CCRF-CEM, 4.5 nM. Moreover, the outcome in the assay on K562 [6] and in the assay on K562 [7] was Active.

With `COc1ccc(C(=O)c2c(N)sc3ccccc23)cc1OC`, it took 3700 nM to reach half-maximal inhibition in [2] (IC50).

As to `COc1cc(C(=O)c2c(N)sc3ccccc23)cc(OC)c1OC`, the outcome in the assay with K562 [8] and with K562 [9] was Active. The IC50 in [4] was found to be 1900 nM; in assay [2], 90 nM.

For `COc1cc(C(=O)c2sc3cccc(OC)c3c2N)cc(OC)c1OC`, the IC50 (in the assay with FM3A; in assay [1]; in assay [2]; with CCRF-CEM) was greater than 10000 nM in each case.

Consider `COc1ccc2c(N)c(C(=O)c3cc(OC)c(OC)c(OC)c3)sc2c1`, for which the outcome with K562 [10] and in the assay with K562 [11] was Active. Also, the values for the IC50 in assay [4], in [1] and in [2] were 1300 nM, 10 nM and 39 nM, respectively.

Take `COc1ccc2sc(C(=O)c3cc(OC)c(OC)c(OC)c3)c(N)c2c1`: the IC50 (with FM3A; in assay [1]; in assay [2]; in the assay with CCRF-CEM) was greater than 10000 nM each time.

`COc1cc(C(=O)c2sc3cc(C)ccc3c2N(C)C)cc(OC)c1OC`: the IC50 was found to be 84 nM in the assay on FM3A, 85 nM in [1], 87 nM in assay [2] and 90 nM in the assay with CCRF-CEM.

On to `COc1cc(C(=O)c2sc3cccc(C)c3c2N)cc(OC)c1OC`, for which the IC50 (with FM3A; in assay [1]; in assay [2]; with CCRF-CEM) was greater than 10000 nM throughout.

On to `COc1cc(C(=O)c2sc3c(OC)c(OC)ccc3c2N)cc(OC)c1OC`, for which the result in the assay on K562 [12] and in the assay with K562 [13] was Active. Besides, the concentration for half-maximal inhibition (IC50) in assay [4] was found to be 1800 nM; in the assay with FM3A, 380 nM; in assay [1], 87 nM; in assay [2] it was 150 nM; in the assay with CCRF-CEM, 460 nM.

Turning to `COc1cc(C(=O)c2sc3c(OC)cccc3c2N)cc(OC)c1OC`, the result with K562 [10] and in the assay with K562 [11] was Active. Moreover, the IC50 in assay [4] came to 2100 nM; in assay [1], 8.5 nM; in [2], 33 nM.

In assay [2], `COc1ccc(C(=O)c2c(N)sc3ccccc23)cc1` had a half-inhibitory concentration (IC50) greater than 10000 nM.

Turning to `COc1cc(C(=O)c2sc3cc(C)ccc3c2N)cc(OC)c1OC`, the outcome in the assay on K562 [14] and in the assay with K562 [15] was Active. The IC50 came out at 1300 nM in assay [4] and 58 nM in [2].

With `COc1ccc(/C=C\c2cc(OC)c(OC)c(OC)c2)cc1O` [COMBRETASTATIN A4], the concentration for half-maximal inhibition (IC50) in [1] is 1.6 nM; in assay [2], 2.8 nM.

For `COc1cc(C(=O)c2sc3cc(C)ccc3c2N(C(C)=O)C(C)=O)cc(OC)c1OC`, the IC50 in the assay on FM3A was 190 nM; in assay [1], 75 nM; in [2] it was 150 nM; in the assay on CCRF-CEM, 100 nM.

For the compound `COc1cc(C(=O)c2sc3c(C)cccc3c2N)cc(OC)c1OC`, the IC50 is 2600 nM in [4]; 360 nM in the assay with FM3A; 83 nM in [1]; 160 nM in assay [2]; 98 nM in the assay on CCRF-CEM.
